Source: article PMC4245125, “Pharmacological and Behavioral Characterization of D-473, an Orally Active Triple Reuptake Inhibitor Targeting Dopamine, Serotonin and Norepinephrine Transporters” (PLoS ONE, 2014)

Key:
H3 = target: T1, H3 (Homo sapiens, UniProt Q9Y5N1); assay: NIMH PDSP receptor binding, H3; conditions: [3H]Alpha-methyl Histamine, read-out: % Inhibition of Binding at 10 µM D-473
T1 construct: purchased NIMH PDSP

κ-opioid = target: T2, κ-opioid (Homo sapiens, UniProt P41145); assay: NIMH PDSP receptor binding, κ-opioid; conditions: [3H]Bremazocine, read-out: % Inhibition of Binding at 10 µM D-473
T2 construct: purchased NIMH PDSP

D1 = D1 (Homo sapiens, UniProt P21728); assay: NIMH PDSP receptor binding, D1
Beta3 = target: T3, Beta3 (Homo sapiens, UniProt P13945); assay: NIMH PDSP receptor binding, Beta3; conditions: [125I]Iodopindolol
T3 construct: NIMH PDSP

[1] = Brain uptake after oral administration in rats; assay type: in vivo; conditions: rat, 25 mg/kg PO
Experimental: Sample preparation: Following oral administration of 25 mg/kg of D-473 and D-142 in male Sprague Dawley rats, the blood samples were collected at different time points over a period of 8 h for analysis. Concentrations of D-473 and D-142 in plasma were quantitated using a set of calibration standards prepared in blank matrix that were processed in parallel. Plasma concentration evaluation was carried out by the CRO, Absorption System, PA. Additionally, brain uptake studies of D-473 were carried out at three different time points (2, 4 and 6 h) following oral administration of 25 mg/kg D-473. Concentrations of D-473 in rat brain were quantitated using a set of calibration standards which were prepared in blank brain homogenate matrix on the day of analysis. The standard samples (5, 10, 25, 100, 500, 1000, and 2000 ng/mL) for calibration curve were prepared by spiking 45 µL of blank rat plasma with 5 µL of appropriate working dilution of D-473 in acetonitrile. The bioanalytical sample preparation for brain and plasma analysis followed by quantification of test compounds entailed the addition of 250 µL acetonitrile to every 50 µL of standard and analyte samples to precipitate tissue plasma proteins and tissue macromolecules. These mixtures were then vortexed for 15 min at 1400 rpm. The suspensions were then clarified by centrifugation (18000 g, 10 min at 4°C), and each 150 µL of the resulting supernatant was mixed well with 50 µL 0.1% formic acid in 50/50 (v/v) ACN/water solution for about 10 sec. The mixtures were again centrifuged (18000 g, 10 min at 4°C) before 100 µL of clear supernatant were transferred to auto sampler vials for LC-MS/MS analysis.
The analysis of brain samples was performed using Waters (Milford, MA, USA) Acquity UPLC instrument with a triple quadrupole (TQD) MS analyzer. The LC-MS/MS detection was performed using a positive Multiple Reaction Monitoring (MRM) method by monitoring the ion transition of D-473 from m/z 440.39 → 121.03. The MS/MS conditions include capillary voltage, 2.92 kV, cone voltage, 26.0 V; source temperature, 150°C; desolvation temperature, 350°C; desolvation gas flow, 500 L/hr; and collision energy, 33 eV. The MS control and data acquisition were collected using the Waters MassLynx software v4.1. Chromatographic conditions were achieved using a reverse phase C-18 ethylene bridged hybrid column (BEH C18) (2.1×100 mm, 1.7 µM). 5 µL of sample solutions were injected and samples were eluted using 0.1% formic acid in water (solvent A) and 0.1% formic acid in ACN (solvent B) mixture with a flow rate of 0.2 mL/min. Gradient elution of the mobile phase was 90% A to 5% A from 0 to 1 min, 5% A, 95% B from 1 to 3 min, and 5% A to 90% A from 3 to 5 min.

δ-opioid = target: T4, δ-opioid (Homo sapiens, UniProt P41143); assay: NIMH PDSP receptor binding, δ-opioid; conditions: [3H]DADLE, read-out: % Inhibition of Binding at 10 µM D-473
T4 construct: purchased NIMH PDSP
T4 sequence (P41143 whole entry): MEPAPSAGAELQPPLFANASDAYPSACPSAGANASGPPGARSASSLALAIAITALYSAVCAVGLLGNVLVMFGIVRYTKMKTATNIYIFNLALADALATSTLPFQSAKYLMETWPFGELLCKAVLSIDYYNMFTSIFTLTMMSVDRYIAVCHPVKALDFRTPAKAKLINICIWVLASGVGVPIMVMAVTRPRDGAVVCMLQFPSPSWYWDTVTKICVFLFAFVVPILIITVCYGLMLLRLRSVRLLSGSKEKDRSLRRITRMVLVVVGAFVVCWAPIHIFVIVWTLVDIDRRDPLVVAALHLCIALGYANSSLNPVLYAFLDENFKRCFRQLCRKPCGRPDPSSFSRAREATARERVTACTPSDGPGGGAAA

T3 sequence (P13945 whole entry): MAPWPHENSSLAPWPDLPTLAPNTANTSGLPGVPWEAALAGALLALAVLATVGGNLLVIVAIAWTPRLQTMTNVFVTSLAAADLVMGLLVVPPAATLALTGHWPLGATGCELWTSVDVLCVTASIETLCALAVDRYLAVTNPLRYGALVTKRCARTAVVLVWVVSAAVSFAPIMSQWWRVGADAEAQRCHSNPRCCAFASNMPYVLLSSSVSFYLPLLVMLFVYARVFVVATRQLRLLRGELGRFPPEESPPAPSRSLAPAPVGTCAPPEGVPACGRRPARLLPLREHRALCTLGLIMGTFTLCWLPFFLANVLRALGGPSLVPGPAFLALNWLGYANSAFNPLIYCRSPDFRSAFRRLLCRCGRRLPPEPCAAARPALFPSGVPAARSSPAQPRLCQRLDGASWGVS
Chain of D1 (P21728 whole entry): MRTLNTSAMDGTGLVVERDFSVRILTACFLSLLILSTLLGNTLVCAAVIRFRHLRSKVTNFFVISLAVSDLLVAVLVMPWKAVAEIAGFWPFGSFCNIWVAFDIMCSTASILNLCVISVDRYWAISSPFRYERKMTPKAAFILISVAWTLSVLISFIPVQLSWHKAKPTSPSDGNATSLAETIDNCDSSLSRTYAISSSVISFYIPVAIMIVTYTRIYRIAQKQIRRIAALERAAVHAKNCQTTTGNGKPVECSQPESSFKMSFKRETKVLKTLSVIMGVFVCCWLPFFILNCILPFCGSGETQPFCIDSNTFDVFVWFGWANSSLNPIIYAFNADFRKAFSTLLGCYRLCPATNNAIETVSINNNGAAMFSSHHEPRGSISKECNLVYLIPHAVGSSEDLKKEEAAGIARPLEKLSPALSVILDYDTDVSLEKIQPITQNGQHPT
T2 sequence (P41145 whole entry): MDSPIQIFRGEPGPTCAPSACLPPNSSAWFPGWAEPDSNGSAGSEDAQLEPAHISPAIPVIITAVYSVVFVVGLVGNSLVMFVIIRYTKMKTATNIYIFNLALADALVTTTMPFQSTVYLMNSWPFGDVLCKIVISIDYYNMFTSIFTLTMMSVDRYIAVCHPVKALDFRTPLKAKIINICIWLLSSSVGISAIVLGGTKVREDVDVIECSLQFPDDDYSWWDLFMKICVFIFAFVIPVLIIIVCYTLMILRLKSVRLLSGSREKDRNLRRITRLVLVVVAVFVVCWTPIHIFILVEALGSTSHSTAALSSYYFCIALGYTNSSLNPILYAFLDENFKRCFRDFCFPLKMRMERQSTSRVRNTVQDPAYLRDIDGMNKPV
T1 sequence (Q9Y5N1 whole entry): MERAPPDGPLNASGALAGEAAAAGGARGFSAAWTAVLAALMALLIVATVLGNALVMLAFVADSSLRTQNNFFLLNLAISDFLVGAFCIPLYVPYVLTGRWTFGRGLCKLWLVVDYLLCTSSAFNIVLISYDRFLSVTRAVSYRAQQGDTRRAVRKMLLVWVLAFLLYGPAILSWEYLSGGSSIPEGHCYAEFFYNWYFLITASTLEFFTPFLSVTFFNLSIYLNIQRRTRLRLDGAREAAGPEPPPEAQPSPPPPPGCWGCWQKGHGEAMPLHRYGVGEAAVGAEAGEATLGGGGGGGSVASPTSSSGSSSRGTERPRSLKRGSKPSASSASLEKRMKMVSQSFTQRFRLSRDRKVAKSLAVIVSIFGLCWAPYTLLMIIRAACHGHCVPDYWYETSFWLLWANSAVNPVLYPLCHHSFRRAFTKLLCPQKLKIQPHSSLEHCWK

Question: Which inhibition at 10 µM (H3) does the source give for `COc1ccc(CN[C@@H]2CO[C@H](C(c3ccc(F)cc3)c3ccc(F)cc3)C[C@H]2O)cc1` [Compound D-473, (2S,4R,5R)-2-(bis(4-fluorophenyl)methyl)-5-((4-methoxybenzyl)amino)tetrahydro-2H-pyran-4-ol] here?
Answer: Its inhibition at 10 µM is -14.7%.

Question: And the inhibition at 10 µM (κ-opioid)?
Answer: The inhibition at 10 µM was 48.5%.

Question: And the inhibition at 10 µM (D1; [3H]SCH 23390, 10 µM, read-out: % Inhibition of Binding at 10 µM D-473)?
Answer: The inhibition at 10 µM was 62.2%.

Question: What about the Ki (D1; [3H]SCH 23390, secondary assay, read-out: Ki for D-473) of the same molecule?
Answer: Its Ki is 630 nM.

Question: And the inhibition at 10 µM (Beta3; 10 µM, read-out: % Inhibition of Binding at 10 µM D-473)?
Answer: Its inhibition at 10 µM is 61.2%.

Question: And the Ki (Beta3; secondary assay, read-out: Ki for D-473)?
Answer: Its Ki is over 10000 nM.

Question: And the Kp at 2 h ([1]; male, Sprague-Dawley, brain and plasma, 2 h, read-out: Brain/plasma ratio)?
Answer: The Kp at 2 h was 0.76.

Question: What about the Kp at 4 h ([1]; male, Sprague-Dawley, brain and plasma, 4 h, read-out: Brain/plasma ratio) of the same molecule?
Answer: Its Kp at 4 h is 1.54.

Question: What about the Kp at 6 h ([1]; male, Sprague-Dawley, brain and plasma, 6 h, read-out: Brain/plasma ratio) of the same molecule?
Answer: The Kp at 6 h was 1.22.

Question: And the concentration at 2 h ([1]; male, Sprague-Dawley, brain, 2 h)?
Answer: The concentration at 2 h was 264 ng/mL.

Question: What about the concentration at 4 h ([1]; male, Sprague-Dawley, brain, 4 h, read-out: Concentration in the brain (peak)) of the same molecule?
Answer: The concentration at 4 h was 345 ng/mL.

Question: And the “Concentration in the brain” value ([1]; 6 h)?
Answer: The value was “slightly lower than observed at 2 h”.

Question: What about the inhibition at 10 µM (δ-opioid) of the same molecule?
Answer: Its inhibition at 10 µM is 42.7%.
